The source of these data is patent publication US10732172B1, “Methods, systems, and compositions for determining blood clot formation, and uses thereof” (President and Fellows of Harvard College, priority 2015, dated 2020).

Entries after “also recorded” stand apart in the source; their conditions may differ. Some results are limits rather than exact numbers.

Assay type in all cases: cell-based, human
Experiment [1] concerns platelets. In words: Platelet coverage on TNF-α pretreated, fixed (chemopreserved) endothelium in microfluidic device, whole blood perfusion. As to the method:
(§1) By way of example, a microfluidic device is fabricated using photolithography followed by soft lithography with polydimethysiloxane (“PDMS”). According to this example, six microfluidic devices are placed on a single PDMS mold of the size of a standard glass slide, e.g., 75×25 millimeters (“mm”). The microfluidic devices are first exposed to oxygen plasma for 30 seconds using, for example, a PE-100 benchtop plasma system from Plasma Etch. Then, the microfluidic devices are treated with 1% (3-aminopropyl)-trimethoxysilane (“APTMS”), from Sigma, in 100% anhydrous ethanol for ten minutes. After subsequent rinsing with 70% and 100% ethanol, the microfluidic devices are dried and type I collagen from rat tail, e.g., 100 micrograms/milliliter (“μg/ml) from Corning, is introduced in microchannels of the microfluidic devices.
The microfluidic devices are left overnight at 37° C. in a 5% carbon dioxide (“CO2”) incubator, after which they are rinsed with Endothelial Growth Medium-2 (“EGM-2”) from Lonza. Human Umbilical Vein Endothelial Cells (“HUVEC”) from a mixed donor, by Lonza, are kept in culture and suspended at 12.5 million cells/milliliter (“mL”) in EGM-2, after confluence. The suspension is introduced into the collagen-coated microchannels, after which the microfluidic devices are incubated upside down for 20 minutes. A fresh HUVEC suspension is then introduced in the microchannels, after which the microfluidic devices are incubated for eight hours to promote cell attachment across the channel. The microchannels are, then, rinsed with EGM-2, sometimes containing a freshly prepared solution of tumor necrosis factor (“TNF-α”), which is a recombinant from E. coli from Sigma. […]
(§2) Platelets are visualized using time-lapse fluorescence imaging (e.g., 20×, NA 0.4). A time series of a 10-frame panorama (e.g., 6 mm long×0.665 mm wide region of a microchannel), at a lapse of every 30 seconds is recorded. […]

Experiment [2] relates to platelets. In words: Light transmission aggregometry (LTA) with ADP or collagen as agonist. To be noted: blood treated ex vivo with abciximab, all doses; ADP 10 μM or collagen 2 μg/mL. As to the method: The LTA is performed in accordance with manufacturer instructions. For example, the LTA uses adenosine diphosphate (“ADP”) 10 μM and collagen 2 μg/mL from Chrono-Log.
Blood from healthy donors was treated ex vivo with abciximab or used untreated. These samples as well as clinical blood samples from subjects were centrifuged at 290 g for 10 min (no brake applied) to collect platelet rich plasma (PRP). To obtain a reference solution for each sample, PRP was centrifuged at high speed to pellet platelets (1,000 g, 10 min) and collect platelet poor plasma (PPP). CaCl2 was added to each sample at a final concentration of 1 mM to recalcify plasma before each run. Cifuni et al. “CalDAG-GEFI and protein kinase C represent alternative pathways leading to activation of integrin alphaIIbeta3 in platelets.” Blood 112, 1696-1703 (2008). LTA has then been performed at 37° C. under magnetic stirring using a Chrono-Log Corporation instrument.

Experiment [3] deals with platelets. Kind of experiment: Platelet coverage in collagen-coated microfluidic device, whole blood perfusion. Conditions: blood with different doses of abciximab; shear 750 sec^-1. As for the experimental part: as §1
500 microliters (“μL”) of whole blood are pipetted into a fluid reservoir fitted to one end of a microchannel. Platelets are labeled with human CD41-PE antibody (e.g., 10 μL/mL from Invitrogen) that is directly added to the blood samples and incubated at room temperature for 10 minutes. […]
as §2

With abciximab, in experiment [1] (fixed endothelium pretreated with TNF-α 5 ng/mL), the “abciximab concentration at which optimal effects on platelet adhesion are observed” value is ≥ 10 µg/mL. Also, in experiment [1] (fixed endothelium pretreated with TNF-α 5 ng/ml), the “difference in platelet inhibition between 10 μg/ml and 100 μg/ml” value is reported as “insignificant”. The “platelet coverage (platelet adhesion) on fixed endothelium” value in experiment [1] (healthy donor whole blood with abciximab 0-100 μg/mL, endothelium pretreated with TNF-α 5 ng/mL then fixed, shear 750 s^-1) is listed as “decreases with increase in abciximab drug concentration; also recorded: dose-dependent inhibition of platelet adhesion; also recorded: significant dose-dependent platelet inhibition”. In addition, in experiment [2], the “platelet aggregation by light transmission aggregometry” value is “no aggregation is observed; also recorded: virtually complete inhibition of platelet aggregation; also recorded: no platelet aggregability”. Further, the “platelet coverage on collagen-coated microfluidic device” value in experiment [3] was “insignificant decrease in platelet adhesion and aggregation; also recorded: small suppressive effect on platelet adhesion; also recorded: poor sensitivity”.
